According to patent US20240197869A1, “HYPERACTIVATORS OF MAMMALIAN DENDRITIC CELLS” (Corner Therapeutics, Inc., priority 2021, published 2024):

Key:
[1] = system: canine peripheral blood mononuclear cells (PBMCs); assay: Viability of canine PBMCs (CellTiter-Glo); format: cell-based; conditions: lipid combined with R848, 2 days, relative to R848 alone
Description: (§1) Isolation of PBMCs from Whole Blood. PBMCs were isolated from whole blood using density gradient centrifugation with Ficoll-Paque PLUS (Cytivia). Whole blood was diluted 1:1 with PBS, layered on top of Ficoll-Paque PLUS and centrifuged at 1000×g for 30 minutes at room temperature. PBMCs were collected, washed twice in PBS, and incubated with Ack lysis buffer (Lonza) to remove any remaining red blood cells.
(§2) Cell Culture and Stimulation. […] Cells were plated at 1×10^5 (canine cells) or 1×10^6 (human cells) per well in 96-well flat bottom tissue culture plates. Lyophilized Vaccigrade R848 (Invivogen) was reconstituted and diluted according to manufacturer's recommendations and added to cells at a final concentration of 1 μg/mL.
(§3) Quantification of Cell Viability.

human moDC = assay: IL-1β secretion by human moDC with surfactant formulations of 22:0 Lyso PC; format: cell-based
Description: Formulation of 22:0 Lyso PC with poloxamers. […] 22:0 Lyso PC was resuspended in the surfactant solution and agitated at 4° C. for an hour. Solutions were then brought to room temperature to form micelles. Using 10× concentrated PBS, salts were added to the solution to stabilize molecular interactions and provide physiologically relevant osmolarity. Lipid solutions were either left unfiltered or filtered through a pore size of 0.45 um to remove insoluble lipid flakes. Lipids were further diluted and added onto human moDC cell cultures along with 1 ug/mL R848. Targeted lipid concentrations were based on the scenario where the lipid is fully bio-available prior to filtration. However, filtration of insoluble lipid reduces the bio-available supply of lipid. Thus, IL-1beta as a measure of hyperactivity can be used as an indicator of 22:0 Lyso PC incorporation into micelles and thus into solution. One day after hyperactivation, cell culture supernatants are collected to measure cytokine secretion, and cells are used to measure viability via Cell Titer-Glo.
Salts are added to the solution to stabilize the molecular interactions and bring the solution to a physiologically relevant osmolarity. The solutions are then either left unfiltered or filtered through a pore size of 0.45 um to remove insoluble lipid flakes or particle aggregates. Lipids are then added to human moDC cultures with 1 ug/mL R848. One day after hyperactivation, cell culture supernatants were collected to measure cytokine secretion, and cells were used to measure cell viability.
Data from these studies in poloxamer formulation are shown from one human moDC donor sample. Individual data points represent the mean of triplicates.

[2] = system: human monocyte-derived dendritic cells (moDCs); assay: Lipid titration: viability of human moDCs (CellTiter-Glo)
Description: Lipid Titration. After 6 days of differentiation into moDC, cells were collected and counted. Cells were replated at 100,000 cells/well in R10 media in 96-well flat bottom tissue culture-treated plates. LPS, serotype 055:B5 (Enzo Life Sciences) was added to a final concentration of 1 μg/mL in each well. After the addition of LPS, lipids were prepared. […] After two days of culture, cell cultures were used for endpoint analyses.
Endpoint Analyses. After culturing moDCs with PAMPs and DAMPs for two days, supernatant and cell samples were collected for analysis. Cells in culture were pelleted by centrifugation at 400×g for 5 min.
Quantification of Cell Viability. Cell viability was assessed by quantifying the presence of ATP as an indicator of metabolically active cells using the CellTiter-Glo Luminescent Cell Viability Assay (Promega). Metabolic activity was assessed following manufacturer's instructions. The CellTiter-Glo reagent was mixed with the cell pellets and remaining supernatant, and transferred to a white, opaque 96-well plate. Luminescence was measured on all wavelengths on a Spectramax iD3 plate reader (Molecular Devices) using an integration time of 500 ms. Percent viability was calculated relative to the control condition of moDCs treated with LPS.
Statistical Analyses. […] For each tested condition, cells from each donor were plated to be tested in triplicate.

[3] = system: B16-F10 mouse melanoma tumor; assay: Therapeutic whole tumor lysate vaccine in B16F10 tumor-bearing mice; format: in vivo, mouse (C57BL/6J)
Description: Ex vivo whole tumor lysate preparation. Syngeneic whole tumor lysates (WTL) were prepared from tumors explants of unimmunized tumor-bearing mice. Briefly, tumors from unimmunized mice bearing a tumor 10-12 mm of size were mechanically disaggregated using gentle MACS dissociator (Miltenyi Biotec) and enzymatically digested using the tumor Dissociation Kit (Miltenyi Biotec) following the manufacturer's protocol. After digestion, tumor cell suspensions were washed with PBS and passed through 70 um and then 30 um filters. Single cell suspension was depleted of CD45+ cells using anti-CD45 TILs microbeads (Miltenyi Biotec). Tumor cells were then counted and resuspended at 1×10^7 cells/ml then lysed by 3-4 cycles of freeze-thawing. The lysed cells were further disrupted by repeatedly passing the material through an 18G, then 21G, and finally 25G needles. Lysate was filtered again through 70 um and 30 um cell strainers and stored in aliquots at −80° C. until use. WTL were used for immunotherapy at a concentration equivalent to 5.75E5 tumor cells per mouse.
Immunotherapeutic immunization and tumor challenges. For immunizations in the context of an immunotherapeutic approach, C57BL/6J were injected on the left flank with 5×10^4 B16F10 cells. […] Mice received two boost injections at 7-day intervals.
Quantification and statistical analysis. In in vivo studies, n refers to the number of animals per condition from one or two independent experiments. Statistical differences were calculated by using unpaired two-tailed Student's t test, or one-way ANOVA with Tukey post-test. Dependent samples were analyzed with paired t tests. Statistical significance for experiments with more than two groups was tested with two-way ANOVA with Tukey multiple comparison test correction. All experiments were analyzed using Prism 7 (GraphPad Software). Graphical data was shown as mean values with error bars indicating the SD or SEM. P values of <0.05 (*), <0.01 (**) or <0.001(***);%0.0001 (****) indicated significant differences between groups.

human PBMCs = assay: Viability of human PBMCs (CellTiter-Glo); format: cell-based; conditions: 2 days post-activation; lipids combined with R848
Description: as §1, §2, §3

[4] = Particle size by Dynamic Light Scattering (DLS); format: physicochemical; conditions: particles of 22:0 Lyso PC and KP407 by solvent evaporation, after 0.45 um filtration
Excerpt: Particle size was quantified by Dynamic Light Scattering (DLS).

[5] = system: human memory CD4+ T cells; assay: Human moDC coculture with memory CD4 T cells: cytokine secretion; format: cell-based; conditions: moDC treated with R848 + lipid; limiting anti-CD3; 2 days after T cell addition
Description: Human moDC coculture with memory CD4 T cells. Human monocytes were isolated from leukopheresis products using Miltenyi StraightFrom LeukoPak CD14 microbeads as directed by manufacturer. Custom PBMC isolation microbead kits from Miltenyi were used to separate PBMCs from red blood cells and granulocytes from the same blood products. After PBMC purification, Miltenyi human memory CD4+ T cell isolation kits were used to negatively select the CD45RO+ fraction. Cells were cryogenically stored until ready for use in experiments.
Human monocytes were differentiated into dendritic cells as previously described using recombinant human GM-CSF and IL-4 for 6 days. moDCs were plated in R10 media at 5E4 cells/well into 96-well U-bottom microplates for hyperactivations. […] T cell stimulating anti-CD3 antibody was added into the culture (with or without blocking anti-IL-1beta antibody) prior to T cell addition. Autologous frozen memory CD4 T cells were thawed, resuspended in R10 media and added at 2.5×10^5 cells/well (ratio 1:5, DC:T cell). After two days incubation, cell culture supernatant was collected and used for measuring cytokine secretion. Commercially available kits such as Biolegend LegendPlex kits were used as directed by manufacturer's protocol to quantify cytokines of interest.
Four donors were tested with each experimental condition tested in triplicate. […]

[6] = WTL 80 ug + R848 100 ug + 65 ug lipid in […]% KP407, 2 boosts every 7 days

Which “relative cell viability (in words)” value [1] does the source give for `CCCCCCCCCCCCCCCCCCCCCC(=O)OC[C@@H](O)COP(=O)([O-])OCC[N+](C)(C)C` [22:0 LYSO PC, 1-behenoyl-2-hydroxy-sn-glycero-3-phosphocholine] here?
Its value is “remain viable”.

And the “relative cell viability (in words)” value ([1]; listed as 22:0 LYSO)?
The value was “did not significantly reduce relative cell viability”.

What about the “IL-1beta secretion, effect of 0.45 um filtration (in words)” value (human moDC; filtered vs unfiltered lipid + R848) of the same compound?
The value was “significantly decreased the IL-1beta secreted by moDC”.

What about the “IL-1beta secretion (in words)” value (human moDC; methanol or ethanol solvent evaporation with KP407, filtered, target 82.5 uM + R848) of the same compound?
The value was “further increased”.

What about the “IL-1beta secretion (in words)” value (human moDC; mixed with KP407 (5% in PBS), 0.45 um filtered, target 82.5 uM + R848) of the same compound?
Its value is “increased IL-1beta secretion”.

And the “IL-1beta secretion (in words)” value (human moDC; not incorporated into KP407 micelles, 0.45 um filtered, target 82.5 uM + R848)?
Its value is “minimal amounts of IL-1beta”.

What about the “IL-1beta secretion (in words)” value (human moDC; surfactant formulations left unfiltered + R848) of the same compound?
Its value is “high IL-1beta secretion”.

What about the “moDC viability (in words)” value ([2]; 10.3 μM lipid + LPS) of the same compound?
The value was “retained high viability”.

What about the “Relative Viability (%) ± SD” value ([2]; 10.3 μM lipid + LPS 1 μg/mL, 2 days, relative to LPS-treated moDCs, Table 1-5) of the same compound?
Its value is 89.1%.

What about the “moDC viability (in words)” value ([2]; 20.6 μM lipid + LPS) of the same compound?
The value was “reduced cell viability somewhat”.

What about the “survival of tumor-bearing mice (in words)” value [3, 6] of the same compound?
Its value is “survived longer”.

And the “tumor growth kinetics (in words)” value [3, 6]?
The value was “delayed tumor growth kinetics”.

And the “benefit of vaccination (in words)” value ([3]; tumor lysate + R848 + lipid in PBS)?
The value was “No significant benefit”.

What about the “human PBMC viability (in words)” value (human PBMCs) of the same compound?
The value was “remain viable”.

And the particle diameter [4]?
Its particle diameter is “approximately 1500 nm”.

What about the “IFN-gamma (Th1 response) from cocultured memory CD4 T cells (in words)” value [5] of the same compound?
Its value is “significantly stronger Th1 response”.
